Astrocyte proliferative activity and astrocyte proliferation data for 2 molecules are collected here from patent publication US10654890B2, “Cyclic peptide derivative, method for preparing same and composition thereof” (priority 2014, dated 2020).

Each structure is given as a SMILES string.

In this test the test system is culture astrocyte. Kind of test: Astrocyte proliferative activity test (BrdU cell proliferation ELISA). It is filed as cell-based, mouse. As to the method: A pregnant ICR female mouse was purchased from Japan SLC, Inc., and a neonatal mouse 24 to 48 after birth was used for the test.
A neonatal ICR mouse (24 to 48 after birth) was sufficiently sterilized with 70% ethanol, immersed in 30 ml of PBS (−) in a 100 mm dish (diameter of 100 mm, Orange Scientific) for cell culture, and then placed in a clean bench. The neonatal mouse was subjected to cervical dislocation using tweezers and euthanized. Head of the neonatal mouse was open and the entire brain was removed. The obtained brain was transferred to a 100 mm dish for cell culture in which 15 ml of high glucose Dulbecco's modified Eagle medium (HG-D-MEM, Wako Pure Chemical Industries, Ltd.) is added. By using tweezers, the olfactory bulb, median eminence, and meninges were removed in the medium to obtain only a cerebrum having hippocampus. Subsequently, the obtained cerebrum was transferred to a 100 mm dish for cell culture added with 10 ml of HG-D-MEM, and using a scalpel, the cerebrum was finely cut to be 1 mm^2 or less. The cerebrum after cutting was transferred, together with the medium, to a 50 ml conical tube (TPP), and after allowing it to stand for 2 minutes, the supernatant was removed. Subsequently, the cerebrum after cutting was added with 4 ml of fresh HG-D-MEM, and after further adding 400 μl of 2.5% trypsin (SIGMA) and 40 μl of 1% DNase I (SIGMA), the cerebrum was incubated in a water bath at 37° C. for 10 minutes under intermittent stirring. Subsequently, to the cerebrum after cutting, 10 ml of HG-D-MEM (10% FBS) was added to terminate the reaction of trypsin followed by centrifuge for 3 minutes at 1,000×g using a centrifuge (H-9R, KOKUSAN Co., Ltd.). The supernatant was collected by an electric pipette, 10 ml of HG-D-MEM (10% FBS) was added to a precipitated cell mass, and pipetting using a sterile pipette was carried out several times until the cell mass is not observed. To remove the remaining cell mass from this cell dispersion, the cell dispersion was passed through a cell strainer (pore diameter of 100 μm, BD Falcon™), and the number of cells in the cell dispersion which has passed through the cell strainer was counted by using a cell counting plate. An adjustment was made with HG-D-MEM (10% FBS) such that the number of cells is 6.0×10^5 cells/ml. After the adjustment of the number of cells, the cell dispersion was seeded, in an amount of 7 ml for each, to a Poly-D-Lysine Cellware 100 mm Dish (PDL 100 mm dish, BD Falcon™). 96 Hours after the seeding, the medium was removed once using an aspirator, and after briefly washing the inside of a 100 mm PDL dish with 10 ml of PBS (−), the medium exchange was carried out by newly adding 7 ml of HG-D-MEM. The above method and the astrocyte preparation described below were carried out based on the method of McCarthy and de Vellis (1980, Non Patent Literature 30).
72 Hours after the medium exchange, the 100 mm PDL dish seeded with the cell broth was removed from the incubator, and tightly covered using a parafilm and fixed by overlaying 3 to 4 dishes. The resultant was cultured by shaking using a bioshaker (MULTI SHAKER MMS, INCUBATOR FMS/EYELA) under a condition including 37° C., 100 rpm, and 20 hours, and the neuronal cells, cell debris, dead cells or the like were liberated. At that time, in the inside the 100 mm PDL dish, only the astrocyte as a glial cell in central nervous system other than neuron was adhered (hereinbelow, described as culture astrocyte). After the shaking, the 100 mm PDL dish was transferred to a clean bench, the supernatant was removed by an aspirator and washed with 10 ml of PBS (−), and after adding 1 ml of 2.5% trypsin (SIGMA) using a Pasteur pipette, the dish was left to stand in an incubator for 10 minutes. The 100 mm PDL dish was again brought back to the clean bench, and added with 10 ml of Dulbecco's modified Eagle medium (D-MEM, Wako Pure Chemical Industries, Ltd.) (10% FBS). […]
In general terms: In an ELISA, binding on a coated surface is turned into a signal by an enzyme label.

With `CNC(=O)Oc1ccc2c(c1)[C@]1(C)CCN(C)[C@@H]1N2C` [eserin, reference compound], where the note is “25 μM, FIG. 8 and FIG. 9”, the astrocyte proliferative activity result is recorded as “no significant astrocyte proliferative activity was observed”.

For the molecule `NS(=O)(=O)Cc1noc2ccccc12` [zonisamide, reference compound], for the setting “100 μM, FIG. 7”, the astrocyte proliferation entry is on record as “hardly observed”.
